Data as given in patent US11613538B2, “Method of inhibiting or reducing a viral infection” (PTC Therapeutics, Inc., priority 2009, dated 2023).

System: hypoxia-induced VEGF production in HeLa cells
Assay: cells
Format: cell-based, human
Conditions: Homo sapiens, HeLa

Structure (SMILES)	EC50 [nM]
CCOC(=O)N1CCc2c([nH]c3ccc(Cl)cc23)[C@@H]1c1ccc(Oc2ncc(CN3CCN(C)CC3)s2)cc1 [Compound 1657]	< 8
O=C(Oc1ccc(Cl)cc1)N1CCc2c([nH]c3ccc(Cl)cc23)[C@@H]1c1ccc(Oc2ncc(CN3CCOCC3)s2)cc1 [Compound 1660]	< 8
CN1CCN(Cc2cnc(Oc3ccc([C@H]4c5[nH]c6ccc(Cl)cc6c5CCN4C(=O)Oc4ccc(Cl)cc4)cc3)s2)CC1 [Compound 1661]	< 8
COc1ccc([C@H]2c3[nH]c4ccc(Cl)cc4c3CCN2C(=O)OCC2CCCC2)cc1 [Compound 1662]	8 to 40
CCOC(=O)NC[C@H](O)COc1ccc([C@H]2c3[nH]c4ccc(Cl)cc4c3CCN2C(=O)Oc2ccc(F)cc2)cc1 [Compound 1663]	< 8
CCOC(=O)NC[C@@H](O)COc1ccc([C@H]2c3[nH]c4ccc(Cl)cc4c3CCN2C(=O)Oc2ccc(F)cc2)cc1 [Compound 1664]	< 8
CCOC(=O)NCC(O)CCOc1ccc([C@H]2c3[nH]c4ccc(Cl)cc4c3CCN2C(=O)OCC)cc1 (stereo partly shown) [Compound 1665]	8 to 40
CC1(C)C(=O)NC(=O)N1CCCOc1ccc(C2c3[nH]c4ccc(Cl)cc4c3CCN2C(=O)Oc2ccc(Cl)cc2)cc1 (stereo not shown) [Compound 1671]	< 8
O=C1CN(CCCOc2ccc(C3c4[nH]c5ccc(Cl)cc5c4CCN3C(=O)Oc3ccc(Cl)cc3)cc2)C(=O)N1 (stereo not shown) [Compound 1672]	< 8
CN1C(=O)CN(CCCOc2ccc(C3c4[nH]c5ccc(Cl)cc5c4CCN3C(=O)Oc3ccc(Cl)cc3)cc2)C1=O (stereo not shown) [Compound 1673]	< 8
CC#CCOC(=O)N1CCc2c([nH]c3ccc(Cl)cc23)[C@@H]1c1ccc(OC2CCN(c3ncccn3)CC2)cc1 [Compound 1678]	< 8
CC#CCOC(=O)N1CCc2c([nH]c3ccc(Cl)cc23)[C@@H]1c1ccc(OC2CCN(CCN3CCOCC3)CC2)cc1 [Compound 1679]	8 to 40
CC#CCOC(=O)N1CCc2c([nH]c3ccc(Cl)cc23)[C@@H]1c1ccc(OC2CCN(C(=O)OCCN3CCOCC3)CC2)cc1 [Compound 1680]	< 8
O=C(Oc1ccc(Cl)cc1)N1CCc2c([nH]c3ccc(Cl)cc23)[C@@H]1c1ccc(OC2CCN(CCN3CCOCC3)CC2)cc1 [Compound 1682]	< 8
CC#CCOC(=O)N1CCc2c([nH]c3ccc(Cl)cc23)[C@@H]1c1ccc(OC2CCNCC2)cc1 [Compound 1683]	8 to 40
CC#CCOC(=O)N1CCc2c([nH]c3ccc(Cl)cc23)[C@@H]1c1ccc(OC2CCN(C)CC2)cc1 [Compound 1684]	8 to 40
O=C(OCC1CCCC1)N1CCc2c([nH]c3ccc(Cl)cc23)[C@@H]1c1ccc(OC[C@H](O)CO)cc1 [Compound 1685]	< 8
O=C(OCC1CCCC1)N1CCc2c([nH]c3ccc(Cl)cc23)[C@@H]1c1ccc(OC[C@@H](O)CO)cc1 [Compound 1686]	< 8
CCC(CO)(CO)COc1ccc([C@H]2c3[nH]c4ccc(Cl)cc4c3CCN2C(=O)OCC2CCCC2)cc1 [Compound 1687]	< 8
COc1ncc(C2NCCc3c2[nH]c2ccc(Cl)cc32)cn1 (stereo not shown) [Compound 1688]	> 1000
COc1ncc(C2c3[nH]c4ccc(Cl)cc4c3CCN2C(=O)Oc2ccc(Cl)cc2)cn1 (stereo not shown) [Compound 1689]	8 to 40
COc1ncc(C2c3[nH]c4ccc(Cl)cc4c3CCN2C(=O)Oc2ccc(F)cc2)cn1 (stereo not shown) [Compound 1690]	8 to 40
CCOC(=O)N1CCc2c([nH]c3ccc(Cl)cc23)C1c1cnc(OC)nc1 (stereo not shown) [Compound 1691]	40 to 200
CC#CCOC(=O)N1CCc2c([nH]c3ccc(Cl)cc23)C1c1cnc(OC)nc1 (stereo not shown) [Compound 1692]	8 to 40
O=C(OCCN1CCOCC1)N1CCC(Oc2ccc([C@H]3c4[nH]c5ccc(Cl)cc5c4CCN3C(=O)Oc3ccc(Cl)cc3)cc2)CC1 [Compound 1693]	< 8

Structure (SMILES)	EC50 [nM]
CN1CCC(Oc2ccc([C@H]3c4[nH]c5ccc(Cl)cc5c4CCN3C(=O)Oc3ccc(Cl)cc3)cc2)CC1 [Compound 1694]	< 8
CCOC(=O)N1CCc2c([nH]c3ccc(Cl)cc23)[C@@H]1c1ccc(OC2OC(CO)C(O)C(O)C2O)cc1 (stereo partly shown) [Compound 1696]	> 1000
CC#CCOC(=O)N1CCc2c([nH]c3ccc(Cl)cc23)[C@@H]1c1ccc(OC2CCN(C[C@H](O)CO)CC2)cc1 [Compound 1697]	< 8
CCOC(=O)N1CCc2c([nH]c3ccc(Cl)cc23)[C@@H]1c1ccc(OC2COC2)cc1 [Compound 1699]	< 8
CCOC(=O)N1CCc2c([nH]c3ccc(Cl)cc23)[C@@H]1c1ccc(Oc2ncc(CS(C)(=O)=O)s2)cc1 [Compound 1700]	< 8
O=C(Oc1ccc(Cl)cc1)N1CCc2c([nH]c3ccc(Cl)cc23)[C@@H]1c1ccc(OC2CCN(CC[C@H](O)CO)CC2)cc1 [Compound 1703]	200 to 1000
O=C(Oc1ccc(Cl)cc1)N1CCc2c([nH]c3ccc(Cl)cc23)[C@@H]1c1ccc(OC2CCN(C[C@H](O)CO)CC2)cc1 [Compound 1704]	8 to 40
CC#CCOC(=O)N1CCc2c([nH]c3ccc(Cl)cc23)[C@@H]1c1ccc(OC2CCN(CC[C@H](O)CO)CC2)cc1 [Compound 1705]	40 to 200
CCNC(=O)C(=O)N1CCc2c([nH]c3ccc(Cl)cc23)C1c1ccc(OC)cc1 (stereo not shown) [Compound 1706]	40 to 200
COc1ccc(C2c3[nH]c4ccc(Cl)cc4c3CCN2C(=O)C(=O)NC(C)C)cc1 (stereo not shown) [Compound 1707]	40 to 200
CCCNC(=O)C(=O)N1CCc2c([nH]c3ccc(Cl)cc23)C1c1ccc(OC)cc1 (stereo not shown) [Compound 1708]	200 to 1000
COc1ccc(C2c3[nH]c4ccc(Cl)cc4c3CCN2C(=O)C(=O)NC2CCCC2)cc1 (stereo not shown) [Compound 1710]	40 to 200
COc1ccc(C2c3[nH]c4ccc(Cl)cc4c3CCN2C(=O)C(=O)Nc2ccc(Cl)cc2)cc1 (stereo not shown) [Compound 1711]	8 to 40
COc1ccc(C2c3[nH]c4ccc(Cl)cc4c3CCN2C(=O)C(=O)Nc2ccc(C)cc2)cc1 (stereo not shown) [Compound 1712]	8 to 40
COc1ccc(C2c3[nH]c4ccc(Cl)cc4c3CCN2C(=O)C(=O)Nc2ccc(F)cc2)cc1 (stereo not shown) [Compound 1713]	40 to 200
COc1ccc(C2c3[nH]c4ccc(Cl)cc4c3CCN2C(=O)C(=O)Nc2ccc(C#N)cc2)cc1 (stereo not shown) [Compound 1716]	200 to 1000
COc1ccc(C2c3[nH]c4ccc(Cl)cc4c3CCN2C(=O)C(=O)OCC2CC2)cc1 (stereo not shown) [Compound 1717]	8 to 40
COc1ccc(C2c3[nH]c4ccc(Cl)cc4c3CCN2C(=O)C(=O)OCC2CCC2)cc1 (stereo not shown) [Compound 1718]	8 to 40
COc1ccc(C2c3[nH]c4ccc(Cl)cc4c3CCN2C(=O)C(=O)OC2CCCC2)cc1 (stereo not shown) [Compound 1719]	> 1000
COc1ccc(C2c3[nH]c4ccc(Cl)cc4c3CCN2C(=O)C(=O)Oc2ccc(Cl)cc2)cc1 (stereo not shown) [Compound 1720]	> 1000
COc1ccc(C2c3[nH]c4ccc(Cl)cc4c3CCN2C(=O)C(=O)Oc2ccc(C)cc2)cc1 (stereo not shown) [Compound 1721]	> 1000
COc1ccc(C2c3[nH]c4ccc(Cl)cc4c3CCN2C(=O)C(=O)Oc2ccc(F)cc2)cc1 (stereo not shown) [Compound 1722]	> 1000
COc1ccc(OC(=O)C(=O)N2CCc3c([nH]c4ccc(Cl)cc34)C2c2ccc(OC)cc2)cc1 (stereo not shown) [Compound 1723]	> 1000
COc1ccc(C2c3[nH]c4ccc(Cl)cc4c3CCN2C(=O)C(=O)Oc2ccccc2)cc1 (stereo not shown) [Compound 1724]	> 1000
